Laboratory results reported in BindingDB's records for patent US20250313563 (The Broad Institute, 2025).
pIC50: −log10 of the molar value. Several values for one entry are separate records, joined by “and”; a condition that tells them apart may be missing. Identical values can stand only once.

Experiments:
[1] = biological target: Glycogen synthase kinase-3 beta (Homo sapiens, UniProt P49841); assay: TR-FRET Assay
Summary of the method: (§1)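 TR-FRET readout: streptavidin-d2 (40 nM in added detection mix) plus Tb-anti-pSer641 Ab (2 nM in mix). Steps were 30 min compound preincubation, kinase reaction, then EDTA stop.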

[2] = biological target: Glycogen synthase kinase-3 alpha (Homo sapiens, UniProt P49840); assay: TR-FRET Assay
Chain of Glycogen synthase kinase-3 alpha (P49840 whole entry): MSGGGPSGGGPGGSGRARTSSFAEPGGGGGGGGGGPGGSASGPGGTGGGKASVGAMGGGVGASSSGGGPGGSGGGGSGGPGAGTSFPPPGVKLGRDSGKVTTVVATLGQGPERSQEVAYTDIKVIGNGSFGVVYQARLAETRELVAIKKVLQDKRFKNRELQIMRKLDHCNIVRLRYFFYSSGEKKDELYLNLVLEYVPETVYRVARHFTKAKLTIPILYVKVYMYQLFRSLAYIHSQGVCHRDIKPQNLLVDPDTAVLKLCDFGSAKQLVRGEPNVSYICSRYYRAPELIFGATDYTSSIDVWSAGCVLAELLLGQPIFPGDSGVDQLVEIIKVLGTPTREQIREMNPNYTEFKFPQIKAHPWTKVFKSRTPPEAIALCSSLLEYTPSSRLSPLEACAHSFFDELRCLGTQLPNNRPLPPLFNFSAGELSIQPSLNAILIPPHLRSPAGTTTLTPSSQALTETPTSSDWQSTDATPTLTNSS
Summary of the method: as §1

Chain of Glycogen synthase kinase-3 beta (P49841 whole entry): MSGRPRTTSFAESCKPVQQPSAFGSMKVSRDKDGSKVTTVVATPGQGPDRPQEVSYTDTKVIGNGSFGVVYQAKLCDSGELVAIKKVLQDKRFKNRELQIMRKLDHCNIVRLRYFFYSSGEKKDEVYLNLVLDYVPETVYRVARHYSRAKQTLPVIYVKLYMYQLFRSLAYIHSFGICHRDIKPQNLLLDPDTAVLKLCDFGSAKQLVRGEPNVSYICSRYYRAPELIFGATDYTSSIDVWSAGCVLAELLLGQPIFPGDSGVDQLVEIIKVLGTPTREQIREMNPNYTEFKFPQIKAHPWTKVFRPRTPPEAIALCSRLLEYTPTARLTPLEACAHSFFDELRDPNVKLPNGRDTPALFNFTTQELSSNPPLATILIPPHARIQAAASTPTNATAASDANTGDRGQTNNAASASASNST

Structure (SMILES)	pIC50 [1]	pIC50 [2]
CCC1(c2cccc(Cl)c2)C2=C(CC(C)(C)CC2=O)NC2N=NC(Br)=C21 (stereo unspecified) [US20250313563, Compound 789564]	> 7.00	> 7.00
CC[C@]1(c2cccc(-c3ccnc(C)c3F)c2)C2=CN=NC2NC2=C1C(=O)NC(C)(C)C2 (stereo partly specified) [US20250313563, Compound 948311]	5.30 to 6.00	6.00 to 7.00
CCC1(c2ccccc2)C2=C(N=NC2)NC2=C1C(=O)CSC2 (stereo unspecified) [US20250313563, Compound 801406]	< 5.30	5.30 to 6.00
CC[C@@]1(c2cccc(-c3cn(C)nc3C(F)(F)F)c2)C2=CN=NC2NC2=C1C(=O)NC(C)(C)C2 (stereo partly specified) [US20250313563, Compound 950563]	> 7.00	> 7.00
CCC1(c2cccc(-c3ccnc(C(C)(C)O)c3)c2)C2=CN=NC2NC2=C1C(=O)CC(C)(C)C2 (stereo unspecified) [US20250313563, Compound 943536]	5.30 to 6.00	> 7.00
CC[C@@]1(c2cccc(S(=O)(=O)C3CC3)c2)C2=C(CC(C)(C)NC2=O)NC2N=NC(C(F)(F)F)=C21 (stereo partly specified) [US20250313563, Compound 948776]	6.00 to 7.00	6.00 to 7.00
CC1(C)CC(=O)C2=C(C1)NC1=C(CN=N1)C21CCN(S(=O)(=O)c2cnc3cccnn23)CC1 [US20250313563, Compound 948120]	> 7.00 and 5.30 to 6.00	> 7.00 and 6.00 to 7.00
CC1(C)CC(=O)C2=C(C1)NC1=C(CN=N1)[C@@]21COC2(CN(C(=O)[C@H]3CC3(F)F)C2)C1 [US20250313563, Compound 948217]	5.30 to 6.00	6.00 to 7.00
CC1(C)CC(=O)C2=C(C1)NC1=C(CN=N1)[C@]21C[C@@H](c2ccncc2)C1 [US20250313563, Compound 889665]	> 7.00 and 6.00 to 7.00	> 7.00
CC1(C)CC(=O)C2=C(C1)NC1=C(CN=N1)C21CN(S(=O)(=O)C2CCCCC2)C1 [US20250313563, Compound 918275]	> 7.00	> 7.00
CCC1(c2cccc(Br)c2)C2=C(CC(C)(C)CC2=O)NC2N=NC(C(F)(F)F)=C21 (stereo unspecified) [US20250313563, Compound 801324]	> 7.00	> 7.00
CC[C@]1(c2cccc(C(F)(F)F)c2)C2=CN=NC2NC2=C1C(=O)N(c1ccsc1)CC2 (stereo partly specified) [US20250313563, Compound 952630]	6.00 to 7.00	> 7.00
CC1(C)CC(=O)C2=C(C1)NC1=C(CN=N1)C21CCN(c2ccncc2)CC1 [US20250313563, Compound 880765]	< 5.30	< 5.30
CC[C@]1(c2cccc(Br)c2)C2=CN=NC2NC2=C1C(=O)C[C@@H](C)C2 (stereo partly specified) [US20250313563, Compound 810484]	< 5.30	< 5.30
CC1(C)CC(=O)C2=C(C1)NC1=C(CN=N1)C21CCCCCC1 [US20250313563, Compound 883978]	6.00 to 7.00	6.00 to 7.00
CC[C@@]1(c2cccc(C)c2)C2=CN=NC2NC2=C1C(=O)CC(C)(C)C2 (stereo partly specified) [US20250313563, Compound 789561]	< 5.30	5.30 to 6.00
CC[C@@]1(c2ccccc2)C2=CN=NC2NC2=C1C(=O)[C@H](C)C[C@@H]2C (stereo partly specified) [US20250313563, Compound 909217]	5.30 to 6.00	6.00 to 7.00
CCC1(c2cccc(N3CCCC3)c2)C2=CN=NC2NC2=C1C(=O)NC(C)(C)C2 (stereo unspecified) [US20250313563, Compound 945723]	5.30 to 6.00	6.00 to 7.00
CCC1(c2cccc(CN(C)C(=O)COC)c2)C2=CN=NC2NC2=C1C(=O)CC(C)(C)C2 (stereo unspecified) [US20250313563, Compound 865196]	< 5.30	6.00 to 7.00
CC1(C)CC(=O)C2=C(C1)NC1=C(CN=N1)C21CCSC1 (stereo unspecified) [US20250313563, Compound 883973]	6.00 to 7.00	> 7.00
CC[C@@]1(c2cccc(-c3ccncc3C)c2)C2=C(CC(C)(C)CC2=O)NC2N=NC(C)=C21 (stereo partly specified) [US20250313563, Compound 913022]	5.30 to 6.00	6.00 to 7.00
CCC1(c2cccc(-c3ccnc(C)c3F)c2)C2=C(CC(C)(C)NC2=O)NC2N=NC(C)=C21 (stereo unspecified) [US20250313563, Compound 947402]	6.00 to 7.00	> 7.00
Cc1ncc(S(=O)(=O)N2CCC3(CC2)C2=C(N=NC2)NC2=C3C(=O)CC(C)(C)C2)s1 [US20250313563, Compound 947899]	> 7.00	> 7.00
CC1(C)CC(=O)C2=C(C1)NC1=C(CN=N1)C21CN(S(=O)(=O)c2ccccn2)C1 [US20250313563, Compound 913262]	> 7.00	> 7.00
CC[C@]1(c2cccc(N(C)c3ncccn3)c2)C2=C(CC(C)(C)NC2=O)NC2N=NC(C(F)(F)F)=C21 (stereo partly specified) [US20250313563, Compound 949180]	6.00 to 7.00	> 7.00
Cc1nc(C)c(S(=O)(=O)N2CCC3(CC2)C2=C(N=NC2)NC2=C3C(=O)CC(C)(C)C2)s1 [US20250313563, Compound 947259]	> 7.00	> 7.00
CCC1(c2cccc(S(=O)(=O)C3CC3)c2)C2=CN=NC2NC2=C1C(=O)N(C)C(C)(C)C2 (stereo unspecified) [US20250313563, Compound 948303]	> 7.00	> 7.00

Structure (SMILES)	pIC50 [1]	pIC50 [2]
CC[C@@]1(c2cccc(-c3ccnc(C)c3F)c2)C2=CN=NC2NC2=C1C(=O)NC(C)(C)C2 (stereo partly specified) [US20250313563, Compound 948306]	6.00 to 7.00	> 7.00
CCC1(c2cccc(-c3ccnc4c3CCCC4)c2)C2=CN=NC2NC2=C1C(=O)CC(C)(C)C2 (stereo unspecified) [US20250313563, Compound 932625]	> 7.00	> 7.00
CC1(C)CC(=O)C2=C(C1)NC1=C(CN=N1)C21COC2(CN(C(=O)C3CCC(F)C3)C2)C1 (stereo unspecified) [US20250313563, Compound 947486]	> 7.00	> 7.00
CC[C@]1(c2cccc(N3CCCCC3)c2)C2=C(CC(C)(C)CC2=O)NC2N=NC(C(F)(F)F)=C21 (stereo partly specified) [US20250313563, Compound 816800]	> 7.00	> 7.00
CC[C@]1(c2cccc(C(F)(F)F)c2)C2=C(CC(C)(C)CC2=O)NC2N=NC(C)=C21 (stereo partly specified) [US20250313563, Compound 810368]	< 5.78	6.00 to 7.00
CC1(C)CC(=O)C2=C(C1)NC1=C(CN=N1)C21CCN(S(=O)(=O)c2ccccc2)CC1 [US20250313563, Compound 874530]	> 7.00 and 5.30 to 6.00	> 7.00 and 6.00 to 7.00
CC[C@]1(c2cccc(-c3ccncc3C(F)(F)F)c2)C2=C(N=NC2)NC2=C1C(=O)C(C)(C)C2 [US20250313563, Compound 952759]	> 7.00 and 5.30 to 6.00	> 7.00 and 6.00 to 7.00
CC[C@]1(c2cccc(-c3cnn(C)c3)c2)C2=CN=NC2NC2=C1C(=O)C[C@@H](C)C2 (stereo partly specified) [US20250313563, Compound 823721]	6.00 to 7.00	6.00 to 7.00
CC1(C)CC(=O)C2=C(C1)NC1N=NC=C1[C@]21CCCN(S(=O)(=O)Cc2ccccc2)CC1 (stereo partly specified) [US20250313563, Compound 945483]	6.00 to 7.00	6.00 to 7.00
CCC1(c2cccc(C(F)(F)F)c2)C2=C(CC(C)(C)CC2=O)NC2N=NC(C(F)(F)F)=C21 (stereo unspecified) [US20250313563, Compound 789584]	5.30 to 6.00	6.00 to 7.00
CCC1(c2cccc(-c3cncn3C)c2)C2=CN=NC2NC2=C1C(=O)NC(C)(C)C2 (stereo unspecified) [US20250313563, Compound 945597]	> 7.00	> 7.00
CC1(C)CC(=O)C2=C(C1)NC1=C(CN=N1)C21CCN(S(C)(=O)=O)C1 (stereo unspecified) [US20250313563, Compound 912092]	> 7.00	> 7.00
CC(=O)N1CCCC2(CC1)C1=CN=NC1NC1=C2C(=O)CC(C)(C)C1 (stereo unspecified) [US20250313563, Compound 889575]	5.30 to 6.00	6.00 to 7.00
CCc1cc(N(C)c2cccc(C3(CC)C4=CN=NC4NC4=C3C(=O)CC(C)(C)C4)c2)ccn1 (stereo unspecified) [US20250313563, Compound 945600]	5.30 to 6.00	6.00 to 7.00
CCC1(c2cccc(-c3cn(C)nc3C)c2)C2=C(CC(C)(C)NC2=O)NC2N=NC(F)=C21 (stereo unspecified) [US20250313563, Compound 948301]	> 7.00	> 7.00
C[C@@H]1C[C@H](C)C[C@@]2(C1)C1=C(N=NC1)NC1=C2C(=O)CC(C)(C)C1 [US20250313563, Compound 884114]	6.00 to 7.00	6.00 to 7.00
CCC1(c2cccc(N(C)c3cccnc3C)c2)C2=CN=NC2NC2=C1C(=O)CC(C)(C)C2 (stereo unspecified) [US20250313563, Compound 885355]	5.30 to 6.00	6.00 to 7.00
CC[C@]1(c2cccc(N(C)c3ncccn3)c2)C2=C(N=NC2)NC2=C1C(=O)C(C)(C)C2 [US20250313563, Compound 952212]	6.00 to 7.00 and < 5.30	> 7.00 and 6.00 to 7.00
CC[C@@]1(c2cccc(-c3ccnc(C)c3Cl)c2)C2=CN=NC2NC2=C1C(=O)NC(C)(C)C2 (stereo partly specified) [US20250313563, Compound 948361]	> 7.00 and 5.30 to 6.00	> 7.00 and 6.00 to 7.00
CC[C@@]1(c2cccc(C3=C4CC=C(F)C=C4N=CC3)c2)C2=CN=NC2NC2=C1C(=O)NC(C)(C)C2 (stereo partly specified) [US20250313563, Compound 948528]	6.00 to 7.00	> 7.00
O=C1C2=C(NC3N=NC=C3C23CCOCC3)[C@H]2CC[C@@H]1C2 (stereo partly specified) [US20250313563, Compound 912080]	6.00 to 7.00	6.00 to 7.00
CCC1(c2cccc(-c3cnn4c3CCCC4)c2)C2=C(CC(C)(C)NC2=O)NC2N=NC(C(F)(F)F)=C21 (stereo unspecified) [US20250313563, Compound 947801]	> 7.00	> 7.00
Cn1cc(S(=O)(=O)N2CC[C@@]3(C2)C2=C(N=NC2)NC2=C3C(=O)CC(C)(C)C2)cn1 [US20250313563, Compound 951725]	5.30 to 6.00	6.00 to 7.00
CC[C@@]1(c2cccc(-c3cnn(-c4ccncn4)c3)c2)C2=CN=NC2NC2=C1C(=O)NC(C)(C)C2 (stereo partly specified) [US20250313563, Compound 952016]	5.30 to 6.00	6.00 to 7.00
CC[C@@]1(c2cccc(-c3cnn(-c4cccnc4)c3)c2)C2=CN=NC2NC2=C1C(=O)NC(C)(C)C2 (stereo partly specified) [US20250313563, Compound 952024]	< 5.30	6.00 to 7.00
CC[C@@]1(c2cccc(N(C)c3ncccn3)c2)C2=CN=NC2NC2=C1C(=O)NC(C)(C)C2 (stereo partly specified) [US20250313563, Compound 943965]	< 5.30	6.00 to 7.00
